“Also recorded” adds a separate entry of the source. Residues, ends and D or L forms follow the SMILES beside them. *: point of attachment. Cbz = O=C(OCc1ccccc1)*; CH2F = FC*
What was measured:
PPC-1 cells [1] = conditions: positive control, Kim et al. 2002; cited from earlier work
FLIP [2] = conditions: Kim et al. 2002; cited from earlier work
PPC-1 cells [3] = assay: Extrinsic (CH-11, TRAIL) versus intrinsic (VP-16, STS) pathway stimuli, MTT; assay type: cell-based; conditions: MTT 24 hours
Excerpt: Identification of small molecules that specifically sensitize to extrinsic pathway. The nine compounds identified using anti-FAS antibody screening theoretically could non-specifically sensitize tumor cells to apoptotic stimuli or they could be selective for the extrinsic pathway. To distinguish between these two possibilities, the effects of compounds on apoptosis induced by extrinsic pathway stimuli (e.g., CH-11 antibody; TRAIL) were compared to the effects on the intrinsic pathway stimuli (e.g., etoposide [VP16]; staurosporine [STS]). Accordingly, PPC-1 cells were treated with various concentrations of compounds with or without CH-11, TRAIL, VP-16, or STS, and 24 hours later, cell viability was measured by MTT assays.

FLIP [4] = assay: FLIP protein immunoblot; assay type: cell-based, human
Procedure: Immunoblot analysis. Protein extracts were obtained by washing cells with phosphate-buffered saline (PBS) [pH 7.4] and suspending the cells in lysis buffer [10 mM Tris (pH 7.4), 150 mM NaCl, 0.1% Triton X-100, 0.5% sodium deoxycholate, and 5 mM EDTA] containing protease inhibitors (Complete tablets; Roche, Indianapolis, Ind.). Immunoblot assays were performed as described in Carter et al. (Blood 105:4043-4050, 2005). Briefly, equal amounts of protein as determined by a Bradford assay (Bradford, Anal. Biochem. 72:248-54, 1976) were subjected to SDS-PAGE (4-20% gradient gels from ISC BioExpress, Kaysville, Utah), followed by transfer to nitrocellulose membranes. Membranes were incubated with mouse monoclonal anti-human FLIP (NF6 clone) (1:500 v/v) (Alexis, San Diego, Calif.), 1:1,000 (v/v) anti-aspase-8 clone 5F7 (Upstate) and mouse monoclonal anti-tubulin (1:2000 v/v) (Sigma Inc). Secondary antibodies consisted of horseradish peroxidase-conjugated goat anti-rabbit IgG or goat anti-mouse IgG (Bio-Rad, Hercules, Calif.). Detection was performed by the enhanced chemiluminescence method (Pierce, Rockford, Ill.).
Effects of sensitizing compounds on FLIP protein. Since FAS-sensitizing compounds 6094911 and 5809354 modulate the extrinsic pathway downstream of TNF-family death receptors but upstream of effector caspases, the effects of those compounds on expression of FLIP, an intracellular antiapoptotic protein that binds caspases-8 and -10 and is capable of suppressing death receptor signaling at a proximal point within the extrinsic pathway, was examined. For these experiments, PPC-1 cells were treated with sensitizing compounds in the presence or absence of CH-11 antibody, then cell lysates were prepared 24 hours later, and analyzed by immunoblotting for FLIP.
The levels of the short isoform of FLIP were less than 5% of total FLIP protein as measured by immunoblotting and quantitative densitometry. Therefore, given the very low levels of the short isoform, the analysis was limited to the effects of the compounds on the long isoform of FLIP.

PPC-1 cells [5] = assay: PPC-1 cell viability (MTT) with or without CH-11 anti-FAS antibody; assay type: cell-based; conditions: Homo sapiens, PPC-1, read-out: EC50 as a FAS-sensitizer in PPC1 cells
Procedure: High throughput screening. Screens were performed using a fully integrated, programmable robotic liquid handling system (Biomek® FX, Beckman-Coulter Inc., Fullerton, Calif.), with integrated plate reader (LJL analyst HT 96-384, Sunnyvale, Calif.) and environmentally controlled plate carousel set at 37° C. and 5% CO2:95% air. PPC-1 cells (1×10^4) were seeded overnight into 96 well, flat-bottom plates (Costar, Cambridge, Mass.) in 100 μL of medium containing 2.5% FCS. The next day, aliquots from the 50,000 compound Diversa library were added at a final concentration of 7.5 μg/mL (about 25 μM) in a final concentration of 0.5% (v:v) dimethylsulfoxide (DMSO). CH-11 antibody (100 ng/mL) was then added, and the cells were incubated for 24 hours before assessing cell viability by a 3-(4,5-Dimethylthiazol-2-yl)-2,5-diphenyltetrazolium Bromide (MTT) dye reduction assay (Sigma).
(§1) Cell death assays. Cell viability was measured by MTT and MTS assays, essentially as described in Schimmer et al. (Cancer Cell 5:25-35, 2004). Absorbance readings were plotted against a standard curve to derive the corresponding cell number, and cell viability was expressed as a percentage relative to untreated cells. Apoptosis was measured by flow cytometric analysis of Annexin V surface expression after staining cells with FITC-anti-Annexin V and propidium iodide (PI) (Biovision, Mountain View, Calif.), as described in Pedersen et al. (Blood 100:2965-72, 2002).
Statistics. Cytotoxicity induced by compounds used in combination with conventional agents (e.g., CH-11, TRAIL, VP-16 and staurosporine) was evaluated for evidence of synergy toxicity by comparing the slopes of the dose-response curves. If the combination of the potential sensitizing compound with the conventional agent increased the slope of the dose-response curve compared to the slopes of either the sensitizer or the conventional agent alone, then the interaction was considered synergistic. […] Statistical significance was defined as a p<0.01, using two-sided tests. Synergy was confirmed by performing multiple drug dose-effect calculations using the Median Effect methods as described in Chou (“The Median-Effect Principle and the Combination Index for Quantitation of Synergism and Antagonism.” In: D. C. Rideout and T. C. Chou (eds.), Synergism and Antagonism in Chemotherapy, pp. 61-102: Academic Press, Inc., 1991).
Identification of small molecule FAS sensitizers. Resistance to death receptor ligands may permit malignant cells to escape immune surveillance and limit the clinical efficacy of recombinant death receptor ligands such as TRAIL. To identify small molecules that restore sensitivity to death receptor ligands, a cell-based high throughput screen was performed using the FAS and TRAIL-resistant prostate cancer cell line PPC-1 and a commercially available 50,000 compound library. The screens were performed in 96 well plates, to which compounds were added at 7.5 μg/ml (about 25 μM), followed by agonistic anti-FAS monoclonal antibody CH-11 (100 ng/mL). Cell viability was measured 24 hours later by MTT assay. […] The coefficient of variation (CV) for PPC-1 cells treated with CH-11 alone was determined to be 5%, based on 90 replicate determinations. A 50% decrease in cell viability was used as a cut-off for scoring hits.
From the primary screen of 50,000 compounds, 313 reproducible hits were obtained. To determine whether any of the 313 compounds were toxic molecules as opposed to FAS-sensitizers, the 313 compounds were evaluated in secondary screens where PPC-1 cells were treated with increasing concentrations of the compounds in the presence or absence of CH-11 antibody. Through these secondary screens, nine sensitizers were identified that increased CH-11-mediated killing above the cell death produced by treatment of the cells with the compound alone (Table 1). […]

PPC-1 cells [6] = assay: Annexin V apoptosis with CH-11, sensitizers and caspase inhibitors; assay type: cell-based; conditions: CH-11 and sensitizers such as 6094911, 5809354, 5569100, 12 hours
Procedure: as §1
Caspase-dependent induction of apoptosis by combination treatment with CH-11 and FAS-sensitizing compounds. To further assess the mechanism of the 8 compounds that selectively modulated tumor sensitivity to extrinsic pathway stimuli, the effects of […]-Val-Ala-Asp-fluoromethylketone (zVAD-fmk), a broad-spectrum irreversible inhibitor of caspase-family proteases (Enzyme Systems, Dublin, Calif.) was tested. Accordingly, PPC-1 cells were treated with CH-11 and sensitizers such as 6094911, 5809354, and 5569100 with and without zVAD-fmk (100 μM) for 12 hours. Apoptosis was then measured by Annexin V staining.

## CC1(C)CC[C@]2(C(=O)O)CC[C@]3(C)[C@H](C(=O)C=C4[C@@]5(C)C=C(C#N)C(=O)C(C)(C)[C@@H]5CC[C@]43C)[C@@H]2C1 [CDDO, 2-cyano-3,12-dioxooleana-1,9-dien-28-oic acid]
PPC-1 cells [1]
  sensitization of PPC-1 cells to TNF-family death receptors and ligands: sensitize PPC-1 cells to TNF-family death receptors and ligands
FLIP [2]
  FLIP protein levels: reduce FLIP protein levels; also recorded: reduces FLIP expression

## C[n+]1ccn2c3c(c4cc(C5CCCCC5)ccc42)CCCc31.[I-] [compound 5362611, 8-Cyclohexyl-3-methyl-5,6-dihydro-4H-pyrazino[3,2,1-jk]carbazol-3-ium; iodide]
PPC-1 cells [3]
  sensitization to extrinsic (CH-11, TRAIL) and intrinsic (VP-16, STS) pathway stimuli: sensitized to both the death receptor (extrinsic) and mitochondrial pathway (intrinsic) stimuli

## Cn1c(=N)n(CC(=O)c2cc(C(C)(C)C)c(O)c(C(C)(C)C)c2)c2ccccc21 [compound 5541203, 1-(3,5-Di-tert-butyl-4-hydroxy-phenyl)-2-(2-imino-3-methyl-2,3-dihydro-benzoimidazol-1-yl)-ethanone]
FLIP [4]; PPC-1 cells, with or without CH-11, 24 hours, immunoblot
  levels of FLIP protein (long isoform): had little effect
PPC-1 cells [5]
  EC50: 25.7 µM

## COC(=O)C[C@H](NC(=O)[C@H](C)NC(=O)[C@@H](NC(=O)OCc1ccccc1)C(C)C)C(=O)CF [zVAD-fmk, reference compound] (Cbz-Val-Ala-Asp(OMe)-CH2F)
FLIP [4]; pre-treatment before 5809354 or 5569100
  effect of caspase inhibitor pre-treatment on reductions in FLIP protein: did not prevent reductions in FLIP protein
PPC-1 cells [6]
  effect of caspase inhibitor on apoptosis by CH-11 plus sensitizers: blocked sensitization to CH-11
